According to patent US20230085307A1, “PYRIDAZINONE COMPOUND AND HERBICIDE” (NISSAN CHEMICAL CORPORATION, priority 2019, published 2023):

Assays:
[1] = system: redroot pigweed; assay: Test Example 5: herbicidal effect by foliage application, plastic box (Table 20, symbol N); type: in vivo, redroot pigweed (Amaranthus retroflexus); details: foliage application, 320 g/ha, evaluated three weeks after application
Procedure, shortened: (§1)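 Plants were sown into sterilized diluvial soil under about 1.5 cm cover and kept in a greenhouse at 25° C. to 30° C. Fourteen days on, foliage received an even spray of the diluted emulsion. Herbicidal or crop effect was judged three weeks afterwards.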

[2] = system: Italian ryegrass; assay: Test Example 4: herbicidal effect by soil treatment (Table 19, symbol K); type: in vivo, Italian ryegrass (Lolium multiflorum); details: 320 g/ha
Procedure, shortened: (§2)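 In this soil treatment, the formulated compound reached the seeds only through the soil: seeds were buried about 1.5 cm deep in sterilized diluvial soil, then the diluted emulsion was sprayed over the surface. After three weeks at 25° C. to 30° C. in a greenhouse, effects were graded on criteria from an earlier test.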

[3] = system: Italian ryegrass; assay: Test Example 5: herbicidal effect by foliage application, plastic box (Table 20, symbol K); type: in vivo, Italian ryegrass (Lolium multiflorum); details: foliage application, 320 g/ha, evaluated three weeks after application
Procedure, shortened: as §1

[4] = system: persian speedwell; assay: Test Example 4: herbicidal effect by soil treatment (Table 19, symbol R); type: in vivo, Persian speedwell (Veronica persica); details: 320 g/ha
Procedure, shortened: as §2

[5] = system: southern crabgrass; assay: Test Example 4: herbicidal effect by soil treatment (Table 19, symbol F); type: in vivo, southern crabgrass (Digitaria ciliaris); details: 320 g/ha
Procedure, shortened: as §2

[6] = system: lambsquarters; assay: Test Example 5: herbicidal effect by foliage application, plastic box (Table 20, symbol O); type: in vivo, lambsquarters (Chenopodium album); details: foliage application, 320 g/ha, evaluated three weeks after application
Procedure, shortened: as §1

[7] = system: persian speedwell; assay: Test Example 5: herbicidal effect by foliage application, plastic box (Table 20, symbol R); type: in vivo, Persian speedwell (Veronica persica); details: foliage application, 320 g/ha, evaluated three weeks after application
Procedure, shortened: as §1

[8] = system: blackgrass; assay: Test Example 4: herbicidal effect by soil treatment (Table 19, symbol J); type: in vivo, blackgrass (Alopecurus myosuroides); details: 320 g/ha
Procedure, shortened: as §2

[9] = system: late watergrass; assay: Test Example 1: herbicidal activity, application before weed generation under submerged conditions (Table 16, symbol A); type: in vivo, late watergrass (Echinochloa oryzicola); details: 320 g/ha applied herbicide
Procedure, shortened: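 Submerged Wagner pots (alluvial soil, 4 cm water) sown with weed seeds and planted with 2.5-leaf rice seedlings; emulsifiable concentrate diluted in water applied to water surface on sowing day. Held in greenhouse at 25-30 °C; injury scored 0-5 by herbicidal rate after three weeks.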

[10] = system: redroot pigweed; assay: Test Example 4: herbicidal effect by soil treatment (Table 19, symbol N); type: in vivo, redroot pigweed (Amaranthus retroflexus); details: 320 g/ha
Procedure, shortened: as §2

[11] = system: southern crabgrass; assay: Test Example 5: herbicidal effect by foliage application, plastic box (Table 20, symbol F); type: in vivo, southern crabgrass (Digitaria ciliaris); details: foliage application, 320 g/ha, evaluated three weeks after application
Procedure, shortened: as §1

[12] = system: chickweed; assay: Test Example 4: herbicidal effect by soil treatment (Table 19, symbol P); type: in vivo, common chickweed (Stellaria media); details: 320 g/ha
Procedure, shortened: as §2

[13] = system: oval-leafed pondweed; assay: Test Example 2: herbicidal activity, application during weed generation under submerged conditions (Table 17, symbol C); type: in vivo, oval-leafed pondweed (Monochoria vaginalis); details: AAH 320 g/ha; application during weed generation, submerged conditions
Procedure, shortened: (§3)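 3-wk visual-criteria score after one water-surface dose. Emulsion formulation, water-diluted to set rate; applied at 1–2 leaf stage; alluvial soil, 4 cm standing water; seeds co-sown; greenhouse 25–30° C.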

[14] = system: barnyard grass; assay: Test Example 5: herbicidal effect by foliage application, plastic box (Table 20, symbol H); type: in vivo, barnyard grass (Echinochloa crus-galli); details: foliage application, 320 g/ha, evaluated three weeks after application
Procedure, shortened: as §1

[15] = system: Japanese bulrush; assay: Test Example 2: herbicidal activity, application during weed generation under submerged conditions (Table 17, symbol B); type: in vivo, Japanese bulrush (Schoenoplectus juncoides); details: AAH 320 g/ha; application during weed generation, submerged conditions
Procedure, shortened: as §3

[16] = system: green foxtail; assay: Test Example 4: herbicidal effect by soil treatment (Table 19, symbol G); type: in vivo, green foxtail (Setaria viridis); details: 320 g/ha
Procedure, shortened: as §2

SMILES	herbicidal effect on N: redroot pigweed [1]	herbicidal effect rating, K: Italian ryegrass [2]	herbicidal effect on K: Italian ryegrass [3]	herbicidal effect rating, R: persian speedwell [4]	herbicidal effect rating, F: southern crabgrass [5]	herbicidal effect on O: lambsquarters [6]	herbicidal effect on R: persian speedwell [7]	herbicidal effect rating, J: blackgrass [8]	Herbicidal effect on A: late watergrass (grade 0-5) [9]	herbicidal effect rating, N: redroot pigweed [10]	herbicidal effect on F: southern crabgrass [11]	herbicidal effect rating, P: chickweed [12]	herbicidal effect rating, C: oval-leafed pondweed [13]	herbicidal effect on H: barnyard grass [14]	herbicidal effect rating, B: Japanese bulrush [15]	herbicidal effect rating, G: green foxtail [16]
CON=C(C)c1ccc(-c2sc3ccc(F)cc3c2-c2c(O)c(C)nn(C)c2=O)cc1 [2-079]	5 (Herbicidal rate of 90% or more (almost completely withered))	4 (Herbicidal rate of 70% or more and less than 90%)	5 (Herbicidal rate of 90% or more (almost completely withered))	5 (Herbicidal rate of 90% or more (almost completely withered))	5 (Herbicidal rate of 90% or more (almost completely withered))	5 (Herbicidal rate of 90% or more (almost completely withered))	5 (Herbicidal rate of 90% or more (almost completely withered))	0 (Herbicidal rate of 5% or less (almost no effect))	1 (Herbicidal rate of 5% or more and less than 20%)	5 (Herbicidal rate of 90% or more (almost completely withered))	5 (Herbicidal rate of 90% or more (almost completely withered))	2 (Herbicidal rate of 20% or more and less than 40%)	2 (Herbicidal rate of 20% or more and less than 40%)	5 (Herbicidal rate of 90% or more (almost completely withered))	0 (Herbicidal rate of 5% or less (almost no effect))	5 (Herbicidal rate of 90% or more (almost completely withered))
CCCC(=O)Oc1c(C)nn(C)c(=O)c1-c1c(-c2ccc(C(C)=NOC)cc2)sc2ccc(F)cc12 [2-080]	5 (Herbicidal rate of 90% or more (almost completely withered))	4 (Herbicidal rate of 70% or more and less than 90%)	5 (Herbicidal rate of 90% or more (almost completely withered))	5 (Herbicidal rate of 90% or more (almost completely withered))	2 (Herbicidal rate of 20% or more and less than 40%)	5 (Herbicidal rate of 90% or more (almost completely withered))	5 (Herbicidal rate of 90% or more (almost completely withered))	1 (Herbicidal rate of 5% or more and less than 20%)	5 (Herbicidal rate of 90% or more (almost completely withered))	5 (Herbicidal rate of 90% or more (almost completely withered))	5 (Herbicidal rate of 90% or more (almost completely withered))	3 (Herbicidal rate of 40% or more and less than 70%)	4 (Herbicidal rate of 70% or more and less than 90%)	5 (Herbicidal rate of 90% or more (almost completely withered))	4 (Herbicidal rate of 70% or more and less than 90%)	1 (Herbicidal rate of 5% or more and less than 20%)
CCOc1cc(F)ccc1-c1sc2ccc(F)cc2c1-c1c(O)c(C)nn(C)c1=O [2-084]	5 (Herbicidal rate of 90% or more (almost completely withered))	3 (Herbicidal rate of 40% or more and less than 70%)	3 (Herbicidal rate of 40% or more and less than 70%)	5 (Herbicidal rate of 90% or more (almost completely withered))	5 (Herbicidal rate of 90% or more (almost completely withered))	3 (Herbicidal rate of 40% or more and less than 70%)	5 (Herbicidal rate of 90% or more (almost completely withered))	2 (Herbicidal rate of 20% or more and less than 40%)	1 (Herbicidal rate of 5% or more and less than 20%)	5 (Herbicidal rate of 90% or more (almost completely withered))	4 (Herbicidal rate of 70% or more and less than 90%)	4 (Herbicidal rate of 70% or more and less than 90%)	3 (Herbicidal rate of 40% or more and less than 70%)	5 (Herbicidal rate of 90% or more (almost completely withered))	1 (Herbicidal rate of 5% or more and less than 20%)	4 (Herbicidal rate of 70% or more and less than 90%)
CCCC(=O)Oc1c(C)nn(C)c(=O)c1-c1c(-c2ccc(F)cc2OCC)sc2ccc(F)cc12 [2-085]	4 (Herbicidal rate of 70% or more and less than 90%)	0 (Herbicidal rate of 5% or less (almost no effect))	3 (Herbicidal rate of 40% or more and less than 70%)	3 (Herbicidal rate of 40% or more and less than 70%)	4 (Herbicidal rate of 70% or more and less than 90%)	3 (Herbicidal rate of 40% or more and less than 70%)	4 (Herbicidal rate of 70% or more and less than 90%)	0 (Herbicidal rate of 5% or less (almost no effect))	4 (Herbicidal rate of 70% or more and less than 90%)	5 (Herbicidal rate of 90% or more (almost completely withered))	5 (Herbicidal rate of 90% or more (almost completely withered))	3 (Herbicidal rate of 40% or more and less than 70%)	3 (Herbicidal rate of 40% or more and less than 70%)	4 (Herbicidal rate of 70% or more and less than 90%)	3 (Herbicidal rate of 40% or more and less than 70%)	3 (Herbicidal rate of 40% or more and less than 70%)
